# Test results reported in ChEMBL document CHEMBL1134204, “Carbonic anhydrase inhibitors: synthesis of sulfonamides incorporating dtpa tails and of their zinc complexes with powerful topical antiglaucoma properties” (Bioorg Med Chem Lett, 2001).
# How the values were obtained:
# [1] = molecular target: Carbonic anhydrase 4 (Homo sapiens, UniProt P22748)
# [2] = molecular target: Carbonic anhydrase 1 (Homo sapiens, UniProt P00915)
# [3] = tested on: Oryctolagus cuniculus; assay: Compound was evaluated in vivo in normotensive rabbits (23.5+/-2.6 mmHg) for the intraocular pressure (IOP) lowering 90 min after topical administration with one drop of Carbonic hydrase inhibitor at a pH 7.5; assay type: functional, Eye
# [4] = tested on: Oryctolagus cuniculus; assay: Compound was evaluated in vivo in normotensive rabbits (23.5+/-2.6 mmHg) for the intraocular pressure (IOP) lowering 30 min after topical administration with one drop of Carbonic anhydrase inhibitor at a pH 7.0; assay type: functional, Eye
# [5] = tested on: Oryctolagus cuniculus; assay: In vivo activity in normotensive rabbits (23.5+/-2.6 mmHg) for the intraocular pressure (IOP) lowering 90 min after topical administration with one drop of Carbonic anhydrase inhibitor at a pH 7; assay type: functional, Eye
# [6] = tested on: Oryctolagus cuniculus; assay: In vivo activity in glaucomatous rabbits (33.5+/-3.0 mmHg) for the intraocular pressure (IOP) lowering 30 min after topical administration with one drop of Carbonic anhydrase at a pH 7.0; assay type: functional, Eye
# [7] = tested on: Oryctolagus cuniculus; assay: In vivo activity in normotensive rabbits (23.5+/-2.6 mmHg) for the intraocular pressure (IOP) lowering 60 min after topical administration with one drop of Carbonic anhydrase inhibitor at a pH 7; assay type: functional, Eye
# [8] = tested on: Oryctolagus cuniculus; assay: In vivo activity in glaucomatous rabbits (33.5+/-3.0 mmHg) for the intraocular pressure (IOP) lowering 90 min after topical administration with one drop of Carbonic anhydrase at a pH 7.0; assay type: functional, Eye
# [9] = tested on: Oryctolagus cuniculus; assay: In vivo activity in normotensive rabbits (23.5+/-2.6 mmHg) for the intraocular pressure (IOP) lowering 30 min after topical administration with one drop of Carbonic anhydrase inhibitor at a pH 7; assay type: functional, Eye
# [10] = octanol/water
# [11] = not given; remark: listed apart in the source
# [12] = tested on: Oryctolagus cuniculus; assay: In vivo activity in normotensive rabbits (23.5+/-2.6 mmHg) for the intraocular pressure (IOP) lowering 60 min after topical administration with one drop of Carbonic anhydrase inhibitor at a pH 7.0; assay type: functional, Eye
# [13] = tested on: Oryctolagus cuniculus; assay: Compound was evaluated in vivo in normotensive rabbits (23.5+/-2.6 mmHg) for the intraocular pressure (IOP) lowering 90 min after topical administration with one drop of Carbonic anhydrase inhibitor at a pH 7; assay type: functional, Eye
# [14] = tested on: Oryctolagus cuniculus; assay: In vivo activity in normotensive rabbits (23.5+/-2.6 mmHg) for the intraocular pressure (IOP) lowering 30 min after topical administration with one drop of Carbonic anhydrase inhibitor at a pH 7.0; assay type: functional, Eye
# Carbonic anhydrase 1, sequence (P00915 whole entry): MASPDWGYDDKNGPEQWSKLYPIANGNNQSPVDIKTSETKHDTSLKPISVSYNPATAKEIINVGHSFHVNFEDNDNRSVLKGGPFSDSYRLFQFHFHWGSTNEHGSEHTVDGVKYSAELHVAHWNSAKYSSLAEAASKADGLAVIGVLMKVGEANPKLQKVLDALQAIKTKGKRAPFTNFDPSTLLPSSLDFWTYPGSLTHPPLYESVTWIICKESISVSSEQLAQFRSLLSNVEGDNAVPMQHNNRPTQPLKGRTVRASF
# Carbonic anhydrase 4, sequence (P22748 whole entry): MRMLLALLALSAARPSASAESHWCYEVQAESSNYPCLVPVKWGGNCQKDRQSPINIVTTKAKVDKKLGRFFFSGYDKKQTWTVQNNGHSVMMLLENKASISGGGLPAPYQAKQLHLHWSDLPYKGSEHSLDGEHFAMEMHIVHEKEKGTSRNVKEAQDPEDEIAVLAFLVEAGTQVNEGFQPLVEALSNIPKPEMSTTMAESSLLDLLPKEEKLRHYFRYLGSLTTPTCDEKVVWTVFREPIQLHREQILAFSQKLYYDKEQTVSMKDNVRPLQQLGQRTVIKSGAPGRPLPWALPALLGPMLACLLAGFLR
SMILES,Ki [1] [nM],Ki [2] [nM],further results
NCCC(=O)Nc1nnc(S(N)(=O)=O)s1,125,–,–
Cn1nc(S(N)(=O)=O)s/c1=N\C(=O)CN(CCN(CCN(CC(=O)O)CC(=O)/N=c1/sc(S(N)(=O)=O)nn1C)CC(=O)O)CC(=O)O [listing 1 of 2 here],9,54,–
NS(=O)(=O)c1ccc(CCNC(=O)CN(CCN(CCN(CC(=O)O)CC(=O)NCCc2ccc(S(N)(=O)=O)cc2)CC(=O)O)CC(=O)O)cc1 [listing 1 of 2 here],16,–,–
Cn1nc(S(N)(=O)=O)s/c1=N\C(=O)CN(CCN(CCN(CC(=O)O)CC(=O)/N=c1/sc(S(N)(=O)=O)nn1C)CC(=O)O)CC(=O)O [listing 2 of 2 here],5,43,–
NS(=O)(=O)c1nnc(NC(=O)CN(CCN(CCN(CC(=O)O)CC(=O)Nc2nnc(S(N)(=O)=O)s2)CC(=O)[O-])CC(=O)[O-])s1.[Zn+2],4,–,Change in IOP [3]: 9.5 mmHg; Change in IOP [4]: 7.4 mmHg
NS(=O)(=O)c1ccc(NC(=O)CN(CCN(CCN(CC(=O)O)CC(=O)Nc2ccc(S(N)(=O)=O)cc2)CC(=O)O)CC(=O)O)cc1 [listing 1 of 2 here],100,–,–
NS(=O)(=O)c1ccc(CNC(=O)CN(CCN(CCN(CC(=O)O)CC(=O)NCc2ccc(S(N)(=O)=O)cc2)CC(=O)O)CC(=O)O)cc1 [listing 1 of 2 here],21,–,–
NS(=O)(=O)c1ccc(NNC(=O)CN(CCN(CCN(CC(=O)O)CC(=O)NNc2ccc(S(N)(=O)=O)cc2)CC(=O)O)CC(=O)O)cc1,430,9800,–
Nc1ccc(S(N)(=O)=O)cc1I,125,–,–
Nc1c(S(N)(=O)=O)cc(S(N)(=O)=O)c(Cl)c1Cl,175,–,–
NS(=O)(=O)c1ccc(NC(=O)CN(CCN(CCN(CC(=O)O)CC(=O)Nc2ccc(S(N)(=O)=O)cc2Cl)CC(=O)O)CC(=O)O)c(Cl)c1,27,155,–
NS(=O)(=O)c1cc(S(N)(=O)=O)c(NC(=O)CN(CCN(CCN(CC(=O)O)CC(=O)O)CC(=O)O)CC(=O)O)c(Cl)c1Cl,36,58,–
NS(=O)(=O)c1ccc(NC(=O)CN(CCN(CCN(CC(=O)O)CC(=O)Nc2ccc(S(N)(=O)=O)cc2)CC(=O)O)CC(=O)O)cc1 [listing 2 of 2 here],156,–,Change in IOP [5]: 9.5 mmHg; Kin: 3.6 h⁻¹; Change in IOP [6]: 6 mmHg; Change in IOP [7]: 7.5 mmHg; Change in IOP [8]: 11 mmHg; Change in IOP [9]: 4.4 mmHg; logD [10]: 1.456; Kin [11]: 6.5 h⁻¹
NS(=O)(=O)c1cc(S(N)(=O)=O)c(NC(=O)CN(CCN(CCN(CC(=O)O)CC(=O)Nc2cc(Cl)c(S(N)(=O)=O)cc2S(N)(=O)=O)CC(=O)O)CC(=O)O)cc1Cl,41,63,–
NS(=O)(=O)c1nnc(NC(=O)CCNC(=O)CN(CCN(CCN(CC(=O)O)CC(=O)NCCC(=O)Nc2nnc(S(N)(=O)=O)s2)CC(=O)O)CC(=O)O)s1,8,102,–
NS(=O)(=O)c1ccc(CNC(=O)CN(CCN(CCN(CC(=O)O)CC(=O)O)CC(=O)O)CC(=O)O)cc1,40,550,–
NS(=O)(=O)c1ccc(CNC(=O)CN(CCN(CCN(CC(=O)O)CC(=O)NCc2ccc(S(N)(=O)=O)cc2)CC(=O)O)CC(=O)O)cc1 [listing 2 of 2 here],37,–,–
NS(=O)(=O)c1ccc(NNC(=O)CN(CCN(CCN(CC(=O)O)CC(=O)O)CC(=O)O)CC(=O)O)cc1,630,12000,–
NS(=O)(=O)c1nc2ccc(NC(=O)CN(CCN(CCN(CC(=O)O)CC(=O)Nc3ccc4nc(S(N)(=O)=O)sc4c3)CC(=O)O)CC(=O)O)cc2s1,6,25,–
NS(=O)(=O)c1ccc(CCNC(=O)CN(CCN(CCN(CC(=O)O)CC(=O)NCCc2ccc(S(N)(=O)=O)cc2)CC(=O)O)CC(=O)O)cc1 [listing 2 of 2 here],25,–,–
NS(=O)(=O)c1nc2ccc(OCCO)cc2s1,15,–,–
NS(=O)(=O)c1cccc(NC(=O)CN(CCN(CCN(CC(=O)O)CC(=O)Nc2cccc(S(N)(=O)=O)c2)CC(=O)O)CC(=O)O)c1,425,–,–
NS(=O)(=O)c1ccc(NC(=O)CN(CCN(CCN(CC(=O)O)CC(=O)Nc2ccc(S(N)(=O)=O)cc2Br)CC(=O)O)CC(=O)O)c(Br)c1,21,79,–
NS(=O)(=O)c1ccccc1NC(=O)CN(CCN(CCN(CC(=O)O)CC(=O)O)CC(=O)O)CC(=O)O,550,8600,–
Cn1nc(S(N)(=O)=O)s/c1=N/C(=O)CN(CCN(CCN(CC(=O)O)CC(=O)O)CC(=O)O)CC(=O)O,19,62,–
NS(=O)(=O)c1cc(S(N)(=O)=O)c(NC(=O)CN(CCN(CCN(CC(=O)O)CC(=O)O)CC(=O)O)CC(=O)O)cc1Cl,52,87,–
NS(=O)(=O)c1ccc(NC(=O)CN(CCN(CCN(CC(=O)O)CC(=O)Nc2ccc(S(N)(=O)=O)cc2I)CC(=O)O)CC(=O)O)c(I)c1,24,70,–
NS(=O)(=O)c1ccc(CCNC(=O)CN(CCN(CCN(CC(=O)O)CC(=O)O)CC(=O)O)CC(=O)O)cc1,36,290,–

SMILES,Ki [1] [nM],Ki [2] [nM],further results
NS(=O)(=O)c1ccc(NC(=O)CN(CCN(CCN(CC(=O)O)CC(=O)O)CC(=O)O)CC(=O)O)c(Cl)c1,32,200,–
NS(=O)(=O)c1cc(S(N)(=O)=O)c(NC(=O)CN(CCN(CCN(CC(=O)O)CC(=O)Nc2c(S(N)(=O)=O)cc(S(N)(=O)=O)c(Cl)c2Cl)CC(=O)O)CC(=O)O)c(Cl)c1Cl,25,43,–
NS(=O)(=O)c1ccc(NC(=O)CN(CCN(CCN(CC(=O)O)CC(=O)O)CC(=O)O)CC(=O)O)c(F)c1,29,180,–
NS(=O)(=O)c1ccc(NC(=O)CN(CCN(CCN(CC(=O)O)CC(=O)O)CC(=O)O)CC(=O)O)cc1,180,4100,Change in IOP [12]: 4.5 mmHg; Change in IOP [13]: 7.2 mmHg; Change in IOP [14]: 3.1 mmHg
NS(=O)(=O)c1ccc(NC(=O)CN(CCN(CCN(CC(=O)O)CC(=O)O)CC(=O)O)CC(=O)O)c(I)c1,29,79,–
NS(=O)(=O)c1nc2ccc(OC(=O)CN(CCN(CCN(CC(=O)O)CC(=O)O)CC(=O)O)CC(=O)O)cc2s1,6,32,–
NS(=O)(=O)c1nc2ccc(OCCOC(=O)CN(CCN(CCN(CC(=O)O)CC(=O)OCCOc3ccc4nc(S(N)(=O)=O)sc4c3)CC(=O)O)CC(=O)O)cc2s1,4,16,–
NS(=O)(=O)c1ccc(NC(=O)CN(CCN(CCN(CC(=O)O)CC(=O)O)CC(=O)O)CC(=O)O)c(Br)c1,27,96,–
NS(=O)(=O)c1nc2ccc(OCCOC(=O)CN(CCN(CCN(CC(=O)O)CC(=O)O)CC(=O)O)CC(=O)O)cc2s1,5,30,–
NS(=O)(=O)c1ccc(COC(=O)CN(CCN(CCN(CC(=O)O)CC(=O)O)CC(=O)O)CC(=O)O)cc1,265,510,–
NS(=O)(=O)c1ccc(CCOC(=O)CN(CCN(CCN(CC(=O)O)CC(=O)O)CC(=O)O)CC(=O)O)cc1,190,360,–
Nc1ccc2nc(S(N)(=O)=O)sc2c1,19,–,–
NS(=O)(=O)c1ccc(NC(=O)CN(CCN(CCN(CC(=O)O)CC(=O)Nc2ccc(S(N)(=O)=O)cc2F)CC(=O)O)CC(=O)O)c(F)c1,18,135,–
NS(=O)(=O)c1ccc(CCOC(=O)CN(CCN(CCN(CC(=O)O)CC(=O)OCCc2ccc(S(N)(=O)=O)cc2)CC(=O)O)CC(=O)O)cc1,115,290,–
NS(=O)(=O)c1ccccc1NC(=O)CN(CCN(CCN(CC(=O)O)CC(=O)Nc1ccccc1S(N)(=O)=O)CC(=O)O)CC(=O)O,330,5400,–
NS(=O)(=O)c1cccc(NC(=O)CN(CCN(CCN(CC(=O)O)CC(=O)O)CC(=O)O)CC(=O)O)c1,500,7200,–
NS(=O)(=O)c1nc2ccc(OC(=O)CN(CCN(CCN(CC(=O)O)CC(=O)Oc3ccc4nc(S(N)(=O)=O)sc4c3)CC(=O)O)CC(=O)O)cc2s1,5,21,–
NS(=O)(=O)c1ccc(COC(=O)CN(CCN(CCN(CC(=O)O)CC(=O)OCc2ccc(S(N)(=O)=O)cc2)CC(=O)O)CC(=O)O)cc1,170,325,–
NS(=O)(=O)c1nc2ccc(NC(=O)CN(CCN(CCN(CC(=O)O)CC(=O)O)CC(=O)O)CC(=O)O)cc2s1,9,36,–
NS(=O)(=O)c1nnc(NC(=O)CCNC(=O)CN(CCN(CCN(CC(=O)O)CC(=O)O)CC(=O)O)CC(=O)O)s1,16,110,–
NS(=O)(=O)c1nnc(NC(=O)CN(CCN(CCN(CC(=O)O)CC(=O)Nc2nnc(S(N)(=O)=O)s2)CC(=O)O)CC(=O)O)s1,7,–,Kin: 3.9 h⁻¹; logD [10]: 1.961; Kin [11]: 6.2 h⁻¹
Nc1ccccc1S(N)(=O)=O,1310,–,–
Nc1ccc(S(N)(=O)=O)cc1Br,66,–,–
NS(=O)(=O)c1ccc(CCO)cc1,450,–,–
Nc1ccc(S(N)(=O)=O)cc1F,180,–,–
NNc1ccc(S(N)(=O)=O)cc1,3200,–,–
Nc1ccc(S(N)(=O)=O)cc1 [SULFANILAMIDE],3000,–,–
